# Assay results reported in ChEMBL document CHEMBL1143396, “Additivity in the analysis and design of HIV protease inhibitors” (J Med Chem, 2009).
# pKi: −log10 of the molar value.
# Biological target: Human immunodeficiency virus type 1 protease (Human immunodeficiency virus 1, UniProt Q72874, Q7K)
# Test: Inhibition of HIV1 protease Q7K mutant by FRET method
# Conditions: for pKi: read-out: Ki; for Ki: read-out: pKi (converted)
Compound,pKi,Ki [nM]
COc1ccc(S(=O)(=O)N(CC(C)C)C[C@@H](O)[C@H](Cc2ccccc2)NC(=O)/C=C(\C)C(F)(F)F)cc1,9.41,0.389
C/C(=C\C(=O)N(C)[C@@H](Cc1ccccc1)[C@H](O)CN(Cc1cccs1)S(=O)(=O)c1cc(F)c(F)cc1F)C(F)(F)F,7.28,52.5
CC[C@H](C)CN(C[C@@H](O)[C@H](Cc1ccccc1)NC(=O)[C@@H]1CN(c2cccc(C(C)=O)c2)C(=O)O1)S(=O)(=O)c1ccc(OC)cc1,9.63,0.234
CCC(=O)CCC(=O)N[C@@H](Cc1ccccc1)[C@H](O)CN(C[C@H](C)CC)S(=O)(=O)c1ccc2ncsc2c1,10.20,0.0631
COc1ccc(S(=O)(=O)N(CC(C)C)C[C@@H](O)[C@H](Cc2ccccc2)NC(=O)[C@H](C)NC(C)=O)cc1,9.93,0.117
COc1ccc(S(=O)(=O)N(CC(C)C)C[C@@H](O)[C@H](Cc2ccccc2)NC(=O)[C@@H](NC(C)=O)C(C)C)cc1,10.08,0.0832
CNC(=O)CCC(=O)N[C@@H](Cc1ccccc1)[C@H](O)CN(C[C@H](C)O)S(=O)(=O)c1cccc(OC)c1,6.12,759
Cc1cccc(C(=O)N[C@@H](Cc2ccccc2)[C@H](O)CN(C[C@H](C)O)S(=O)(=O)c2ccco2)n1,< 5.00,
Cc1cccc(OS(=O)(=O)N(C[C@H](C)O)C[C@@H](O)[C@H](Cc2ccccc2)NC(=O)C[C@H]2C=CCC2)c1,4.87,13500
CCCCCN(C[C@@H](O)[C@H](Cc1ccccc1)NC(=O)CCC(=O)CC)S(=O)(=O)c1ccc2ncsc2c1,8.79,1.62
COc1ccc(S(=O)(=O)N(CC(C)C)C[C@@H](O)[C@H](Cc2ccccc2)NC(=O)c2cccc(O)c2)cc1,9.85,0.141
CCCCCN(C[C@@H](O)[C@H](Cc1ccccc1)NC(=O)CCC(=O)CC)S(=O)(=O)c1ccc(OC)cc1,8.38,4.17
CCCCCN(C[C@@H](O)[C@H](Cc1ccccc1)NC(=O)c1cccc(O)c1)S(=O)(=O)c1ccc(OC)cc1,8.84,1.45
COc1cccc(S(=O)(=O)N(C[C@@H](O)[C@H](Cc2ccccc2)NC(=O)c2cccc(C)n2)C[C@@H](C)O)c1,4.91,12300
CC[C@@H](C)CN(C[C@@H](O)[C@H](Cc1ccccc1)NC(=O)c1cccc(O)c1)S(=O)(=O)c1ccc(OC)cc1,9.93,0.117
CNC(=O)CCC(=O)N[C@@H](Cc1ccccc1)[C@H](O)CN(C[C@H](C)O)S(=O)(=O)c1ccco1,6.27,537
Cc1cccc(OS(=O)(=O)N(CC2CC2)C[C@@H](O)[C@H](Cc2ccccc2)NC(=O)C[C@H]2C=CCC2)c1,5.69,2040
O=C(C[C@H]1C=CCC1)N[C@@H](Cc1ccccc1)[C@H](O)CN(CC1CC1)S(=O)(=O)c1ccco1,< 5.00,
Cc1cccc(OS(=O)(=O)N(C[C@@H](O)[C@H](Cc2ccccc2)NC(=O)C[C@H]2C=CCC2)C[C@@H](C)O)c1,< 5.00,
C[C@H](O)CN(C[C@@H](O)[C@H](Cc1ccccc1)NC(=O)C[C@H]1C=CCC1)S(=O)(=O)c1ccco1,6.59,257
CCC(=O)CCC(=O)N[C@@H](Cc1ccccc1)[C@H](O)CN(CC(C)C)S(=O)(=O)c1ccc(OC)cc1,9.62,0.24

Compound,pKi,Ki [nM]
CCC(=O)CCC(=O)N[C@@H](Cc1ccccc1)[C@H](O)CN(CC(C)C)S(=O)(=O)c1ccc2ncsc2c1,9.92,0.12
COc1cccc(S(=O)(=O)N(C[C@H]2CCCO2)C[C@@H](O)[C@H](Cc2ccccc2)NC(=O)[C@@H]2CN(c3cccc(F)c3)C(=O)O2)c1,6.82,151
CCCCCN(C[C@@H](O)[C@H](Cc1ccccc1)NC(=O)c1cccc(O)c1)S(=O)(=O)c1ccc2ncsc2c1,9.51,0.309
CC(=O)N[C@H](C(=O)N[C@@H](Cc1ccccc1)[C@H](O)CN(CC(C)C)S(=O)(=O)c1ccc2ncsc2c1)C(C)C,10.00,0.1
CCCCCN(C[C@@H](O)[C@H](Cc1ccccc1)NC(=O)[C@@H](NC(C)=O)C(C)C)S(=O)(=O)c1ccc(OC)cc1,10.42,0.038
CC[C@H](C)CN(C[C@@H](O)[C@H](Cc1ccccc1)NC(=O)c1ccc(O)c(O)c1)S(=O)(=O)c1ccc(OC)cc1,9.42,0.38
COc1cccc(S(=O)(=O)N(Cc2cccs2)C[C@@H](O)[C@H](Cc2ccccc2)NC(=O)c2cc(O)c(O)c(O)c2)c1,5.94,1150
COc1cccc(S(=O)(=O)N(Cc2cccs2)C[C@@H](O)[C@H](Cc2ccccc2)NC(=O)[C@H]2CCCC[C@@H]2C)c1,6.23,589
O=C(Cc1cccs1)N[C@@H](Cc1ccccc1)[C@H](O)CN(Cc1cccs1)S(=O)(=O)c1cc(F)c(F)cc1F,5.63,2340
COc1cccc(S(=O)(=O)N(Cc2cccs2)C[C@@H](O)[C@H](Cc2ccccc2)Nc2cc(F)c(F)c(O)c2F)c1,6.29,513
O=C(N[C@@H](Cc1ccccc1)[C@H](O)CN(Cc1cccs1)S(=O)(=O)c1cc(F)c(F)cc1F)c1ccnnc1,5.97,1070
CC[C@@H](C)CN(C[C@@H](O)[C@H](Cc1ccccc1)NC(=O)[C@@H](NC(C)=O)C(C)C)S(=O)(=O)c1ccc2ncsc2c1,10.24,0.0575
COc1ccc(S(=O)(=O)N(CC(C)C)C[C@@H](O)[C@H](Cc2ccccc2)NC(=O)/C=C/C(C)=O)cc1,9.77,0.17
CC(=O)/C=C/C(=O)N[C@@H](Cc1ccccc1)[C@H](O)CN(Cc1cccs1)S(=O)(=O)c1cc(F)c(F)cc1F,6.21,617
CCCCCN(C[C@@H](O)[C@H](Cc1ccccc1)NC(=O)C[C@@H](O)CC)S(=O)(=O)c1ccc(OC)cc1,9.07,0.851
CCCCCN(C[C@@H](O)[C@H](Cc1ccccc1)NC(=O)[C@@H](O)C(C)C)S(=O)(=O)c1ccc(OC)cc1,8.61,2.45
CC[C@H](O)CC(=O)N[C@@H](Cc1ccccc1)[C@H](O)CN(CC(C)C)S(=O)(=O)c1ccc(OC)cc1,9.43,0.372
CCCCCN(C[C@@H](O)[C@H](Cc1ccccc1)NC(=O)[C@@H](O)C(C)C)S(=O)(=O)c1ccc2ncsc2c1,9.09,0.813
CC[C@H](O)CC(=O)N[C@@H](Cc1ccccc1)[C@H](O)CN(CC(C)C)S(=O)(=O)c1ccc2ncsc2c1,9.87,0.135
COc1ccc(S(=O)(=O)N(CC(C)C)C[C@@H](O)[C@H](Cc2ccccc2)NC(=O)C2(C(N)=O)CC2)cc1,9.76,0.174
CC[C@@H](C)CN(C[C@@H](O)[C@H](Cc1ccccc1)NC(=O)[C@@H](O)C(C)C)S(=O)(=O)c1ccc(OC)cc1,9.21,0.617

Compound,pKi,Ki [nM]
CC[C@@H](C)CN(C[C@@H](O)[C@H](Cc1ccccc1)NC(=O)C[C@@H](O)CC)S(=O)(=O)c1ccc(OC)cc1,9.47,0.339
COc1ccc(S(=O)(=O)N(CC(C)C)C[C@@H](O)[C@H](Cc2ccccc2)Nc2cccc(F)c2C)cc1,10.03,0.0933
CC[C@@H](C)CN(C[C@@H](O)[C@H](Cc1ccccc1)NC(=O)C[C@@H](O)CC)S(=O)(=O)c1ccc2ncsc2c1,10.17,0.0676
CCCCCN(C[C@@H](O)[C@H](Cc1ccccc1)NC(=O)C1(C(N)=O)CC1)S(=O)(=O)c1ccc(OC)cc1,9.10,0.794
CCCCCN(C[C@@H](O)[C@H](Cc1ccccc1)NC(=O)C1(C(N)=O)CC1)S(=O)(=O)c1ccc2ncsc2c1,9.68,0.209
CC[C@@H](C)CN(C[C@@H](O)[C@H](Cc1ccccc1)NC(=O)C1(C(N)=O)CC1)S(=O)(=O)c1ccc(OC)cc1,9.68,
CNC(=O)CCC(=O)N[C@@H](Cc1ccccc1)[C@H](O)CN(C[C@@H](C)O)S(=O)(=O)c1cccc(OC)c1,5.93,1170
CCCCCN(C[C@@H](O)[C@H](Cc1ccccc1)NC(=O)C[C@@H](O)CC)S(=O)(=O)c1ccc2ncsc2c1,9.15,0.708
CC(C)CN(C[C@@H](O)[C@H](Cc1ccccc1)NC(=O)[C@@H](O)C(C)C)S(=O)(=O)c1ccc2ncsc2c1,9.54,0.288
CC[C@H](C)CN(C[C@@H](O)[C@H](Cc1ccccc1)NC(=O)[C@@H]1CN(c2cccc(C(C)=O)c2)C(=O)O1)S(=O)(=O)c1ccc2ncsc2c1,10.72,0.0191
COc1cccc(S(=O)(=O)N(C[C@H]2CCCO2)C[C@@H](O)[C@H](Cc2ccccc2)NC(=O)[C@@H]2CN(c3ccccc3)C(=O)O2)c1,7.38,41.7
CC[C@@H](C)CN(C[C@@H](O)[C@H](Cc1ccccc1)NC(=O)[C@@H](NC(C)=O)C(C)C)S(=O)(=O)c1ccc(OC)cc1,10.48,0.0331
Cc1cccc(C(=O)N[C@@H](Cc2ccccc2)[C@H](O)CN(CC2CC2)S(=O)(=O)c2ccco2)n1,< 5.00,
COc1cccc(S(=O)(=O)N(C[C@H](C)O)C[C@@H](O)[C@H](Cc2ccccc2)NC(=O)c2cccc(C)n2)c1,5.32,4790
Cc1oncc1S(=O)(=O)N(Cc1cccs1)C[C@@H](O)[C@H](Cc1ccccc1)NC(=O)/C=C/C(C)C(F)(F)F (some centres undefined),4.88,13200
CC[C@H](C)CN(C[C@@H](O)[C@H](Cc1ccccc1)NC(=O)c1cccc(F)c1C)S(=O)(=O)c1ccc2ncsc2c1,10.48,0.0331
CC[C@H](C)CN(C[C@@H](O)[C@H](Cc1ccccc1)NC(=O)[C@H](C)NC(C)=O)S(=O)(=O)c1ccc(OC)cc1,10.34,0.0457
CC(C)CN(C[C@@H](O)[C@H](Cc1ccccc1)NC(=O)C1(C(N)=O)CC1)S(=O)(=O)c1ccc2ncsc2c1,9.94,0.115
COc1ccc(S(=O)(=O)N(CC(C)C)C[C@@H](O)[C@H](Cc2ccccc2)NC(=O)[C@@H](O)C(C)C)cc1,8.73,1.86
CC[C@@H](C)CN(C[C@@H](O)[C@H](Cc1ccccc1)NC(=O)C1(C(N)=O)CC1)S(=O)(=O)c1ccc2ncsc2c1,9.88,0.132
